# Literature values as cited in EP4640075A1, “ORAL POUCHED PRODUCT WITH SELF-EMULSIFYING DELIVERY SYSTEM” (Nicoventures Trading Limited, priority 2024, dated 2025).
# Conditions: Values obtained from PubChem or calculated
substance,measurement,value
tocopherol succinate,log(P)*,10.2
